# Data published in patent US20260263442A1, “METHOD FOR TREATING L-DOPA-INDUCED DYSKINESIA USING BEFIRADOL” (Neurolixis, Inc., priority 2023, published 2026).
# “And” between values parts separate entries of the source, which are not always exact repeats. Identical values can stand only once. Like-named read-outs stand apart in the source and are kept apart here.
# Legend:
# [1] = test system: 6-OH-DA lesioned rats; settings: cited from earlier work
# [2] = test system: pain in PD patients with LID; assay: King's Parkinson's Disease Pain Scale (KPPS), Phase 2a study; format: in vivo, human
# Text: The KPPS is a rater-interview-based scale conducted with the patient and caregiver (if available). It is a 14-item scale covering 7 domains of pain: • Musculoskeletal pain • Chronic pain • Fluctuation-related pain • Nocturnal pain • Orofacial pain • Edema/swelling; discoloration • Radicular pain Each item is scored by severity (0-3; none to very severe) multiplied by frequency (0-4; never to all the time), for an item sub score of 0-12, resulting in a total score from 0 to 168. Ratings are based on the previous month, or in the case of this study, the intervening period since the previous clinic visit (about 3 weeks). Treatment effects would be analyzed as change from baseline for total score and for individual pain domains.
# [3] = target: T1, 5-HT1A receptors (Homo sapiens, UniProt P08908); settings: cited from earlier work
# T1 sequence (P08908 1-422): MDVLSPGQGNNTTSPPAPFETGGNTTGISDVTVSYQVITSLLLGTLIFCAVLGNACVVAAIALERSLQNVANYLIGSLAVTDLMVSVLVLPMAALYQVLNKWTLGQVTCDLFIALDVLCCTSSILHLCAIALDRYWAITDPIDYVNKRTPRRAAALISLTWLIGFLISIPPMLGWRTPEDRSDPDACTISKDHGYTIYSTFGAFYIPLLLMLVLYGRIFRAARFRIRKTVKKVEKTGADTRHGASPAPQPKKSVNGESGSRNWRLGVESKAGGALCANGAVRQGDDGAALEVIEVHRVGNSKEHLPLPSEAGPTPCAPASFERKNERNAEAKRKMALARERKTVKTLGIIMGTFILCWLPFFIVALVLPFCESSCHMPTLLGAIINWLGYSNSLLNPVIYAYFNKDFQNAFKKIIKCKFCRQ
# [4] = test system: quality of life in PD patients with LID; assay: Parkinson's Disease Questionnaire (PDQ39), Phase 2a study; format: in vivo, human
# Text: The PDQ39-item patient reported outcome of health status and quality of life and is the most frequently used disease-specific health status measure for PD. The questionnaire assesses how often people affected by PD experience difficulties across 8 dimensions of daily living. The standard PDQ39 assesses quality of life over the previous month. In this study the initial time period assessed at the Baseline Visit would be the previous month, with subsequent assessments for the intervening period since the last clinic visit (about 3 weeks). The 8 quality of life dimensions covered in the questionnaire are: • Mobility (10 items #1-10) • ADL (6 items #11-16) • Emotional Well Being (6 items #17-22) • Stigma (4 items #23-26) • Social Support (3 items #27-29) • Cognition (4 items #30-33) • Communications (3 items #34-36) • Bodily Discomfort (3 items #37-39) Individual items are rated by the patient on a scale of […]. Dimension scores are calculated on a scale of 0 to 100. The total score and individual dimension scores would be assessed for change from baseline.
# [5] = test system: Parkinson's disease symptoms in PD patients with LID; assay: Unified Parkinson's Disease Rating Scale (UPDRS), Phase 2a study; settings: for UPDRS Part 3, Baseline / UPDRS Part 3, Δ / UPDRS Total, Baseline / UPDRS Total, Δ: on NLX-112
# Protocol: Because the level of dyskinesia experienced by patients can vary over time, they were given 150% (i.e., 1.5×) of their regular L-DOPA dose (up to a maximum of 250 mg) as a challenge 30 min before each dyskinesia assessment to improve comparability between patients and between visits. […] PD symptoms were assessed by Unified Parkinson's Disease Rating Scale (UPDRS) 30-90 min after the 150% L-DOPA challenge (i.e., when the patient was ON). Changes from baseline are shown for total score (i.e., Parts 1 to 4) and individual scores for each Part, 1, 2, 3 and 4.
# Patients were challenged with 150% of their standard L-DOPA dose (maximum L-DOPA dose 250 mg) 30 minutes prior to the first UDysRS assessment. • Change from baseline in UDysRS total score at Day 28 and Day 42, after a 150% L-DOPA dose challenge. • Change from baseline in total objective score (Parts III, IV) of the UDysRS at Day 28 and Day 42, after a 150% L-DOPA dose challenge. • Change from baseline in ON Time Without Troublesome Dyskinesia (ON Without Dyskinesia plus ON With Non-troublesome Dyskinesia) based on a PD Home Dyskinesia Diary. • Change from baseline in Unified Parkinson's Disease Rating Scale (UPDRS) scores (Part III, motor examination). • Change from baseline in UPDRS combined scores (Parts I, II, III and IV). • Clinical Global Impression of Change (CGI-C) in overall PD symptoms • Change from baseline in dyskinesia scores measured by the Kinesia 360 (Great Lakes Neurotechnologies, Inc) wearable dyskinesia assessment system.
# The UPDRS consists of 4 parts: • Part I assesses non-motor experiences of daily living, such as cognitive impairment and depressed mood. • Part II assesses motor experiences of daily living, such as speech and eating tasks. • Part III is a motor examination conducted by the clinician, including assessments of symptoms such as rigidity and tremor. • Part IV is an assessment of motor complications, such as time spent with dyskinesia and functional impact of dyskinesias.
# Each item in the UPDRS is scored from 0 to 4, and the individual scores are summed to give a total score that indicates the severity of the disease, with a score of 0 indicating no disability and a score of 199 being the most severe (indicating total disability).
# Change from baseline in UPDRS combined scores (Parts I, II, III and IV) to Visit 6 (Day 28) and Visit 7 (Day 42) respectively would be summarized using descriptive statistics. […] The same analysis would be done for UPDRS Part III only.
# [6] = test system: models of pain, forced swim test, spinal cord injury model; settings: animal experiments; cited from earlier work
# [7] = in vivo; cited from earlier work
# [8] = both, human, in vivo
# [9] = Baseline, mean (SD), per-protocol set n = 15
# [10] = Day 28, mean (SD), per-protocol set n = 15
# [11] = Day 42, mean (SD), per-protocol set n = 15
# [12] = Patient A, amantadine treatment 1 year
# [13] = Patient B, amantadine treatment 2 years
# [14] = Patient C, amantadine treatment 7 years
# [15] = Patient D, amantadine treatment 11 years
# [16] = Patient E, amantadine treatment 6 years
# [17] = Visit 2 Baseline, Per protocol analysis set, n 15
# [18] = Visit 6 Clinic Efficacy Visit (Day 28), Per protocol analysis set, n 15
# [19] = Visit 6 Clinic Efficacy Visit, Full analysis set, n=15
# [20] = Visit 7 Clinic Efficacy Visit (Day 42), Per protocol analysis set, n 15
# [21] = Visit 7 Clinic Efficacy Visit, Full analysis set, n=15
# [22] = Visit 9 Follow-up Clinic Visit, Full analysis set, n=15
# [23] = Visit 9 Follow-up Clinic Visit, Per protocol analysis set, n 15
smiles,measurement,setting,value
Cc1ccc(CNCC2(F)CCN(C(=O)c3ccc(F)c(Cl)c3)CC2)nc1 [NLX-112],Rotation behavior,[1]; 6-OH-DA lesioned rats,increases rotation behavior
same,Dopamine surge following L-DOPA administration,[1]; parkinsonian rat model of LID,blunted
same,Striatal 5-HT release,[1]; parkinsonian rat model of LID,inhibited striatal 5-HT release
same,Antidyskinetic efficacy against L-DOPA-induced dyskinesia on chronic administration,"[1]; rat, 2-week treatment period",did maintain its antidyskinetic efficacy
same,"KPPS, Baseline, mean (S.D.)","[2]; Baseline, Per Protocol Set, n = 15",16.0 (9.9)
same,"KPPS total score, change from baseline",[2]; Day 42,statistically significant improvement
same,"KPPS, Δ D28, mean (S.D.)","[2]; change from baseline at day 28 (end of up-titration period), Per Protocol Set, n = 15, **p < 0.01 vs baseline (LMM)",−4.6 (7.5)**
same,"KPPS, Δ D42, mean (S.D.)","[2]; change from baseline at day 42 (end of stable dosing period), Per Protocol Set, n = 15, **p < 0.01 vs baseline (LMM)",−4.8 (7.8)**
same,5-HT1A receptor agonist profile,[3],exceptional selectivity for 5-HT1A receptors and full agonist properties
same,5-HT1A receptor agonist profile,[3]; listed as Befiradol,selective and potent
same,Cellular signaling (biased agonist profile),[3]; via G-proteins,preferentially activates specific cellular signaling cascades
same,"Quality of life (PDQ39 score), effect",[4]; Days 28 or 42,no consistent statistically significant effect
same,"PDQ39, Δ D28, mean (S.D.)","[4]; change from baseline at day 28 (end of up-titration period), Per Protocol Set, n = 15",−1.5 (8.0)
same,"PDQ39, Δ D42, mean (S.D.)","[4]; change from baseline at day 42 (end of stable dosing period), Per Protocol Set, n = 15",−0.6 (6.5)
same,UPDRS Part 1,[5]; [9],1.0 (1.0)
same,UPDRS Part 4,[5]; [9],8.0 (2.0)
same,"UPDRS Part 3, change from baseline",[5]; [10],−3.7 points and −3.7 (4.7)**# points
same,"UPDRS Total (Parts 1 to 4), change from baseline",[5]; [10],−6.5 points and −6.5 (7.6)*** points
same,"UPDRS Part 3, change from baseline",[5]; [11],−3.7 points and −3.7 (4.6)** points
same,"UPDRS Total (Parts 1 to 4), change from baseline",[5]; [11],−5.7 points and −5.7 (6.0)** points
same,"UPDRS Part 3, Baseline",[5]; [12],8
same,"UPDRS Part 3, Δ",[5]; [12],−4
same,"UPDRS Total, Baseline",[5]; [12],22
same,"UPDRS Total, Δ",[5]; [12],−5
same,"UPDRS Part 3, Baseline",[5]; [13],22
same,"UPDRS Part 3, Δ",[5]; [13],−9
same,"UPDRS Total, Baseline",[5]; [13],44
same,"UPDRS Total, Δ",[5]; [13],−15
same,"UPDRS Part 3, Baseline",[5]; [14],28
same,"UPDRS Part 3, Δ",[5]; [14],−13
same,"UPDRS Total, Baseline",[5]; [14],51
same,"UPDRS Total, Δ",[5]; [14],−11
same,"UPDRS Part 3, Baseline",[5]; [15],11
same,"UPDRS Part 3, Δ",[5]; [15],+3
same,"UPDRS Total, Baseline",[5]; [15],26
same,"UPDRS Total, Δ",[5]; [15],−5
same,"UPDRS Part 3, Baseline",[5]; [16],15
same,"UPDRS Part 3, Δ",[5]; [16],+2
same,"UPDRS Total, Baseline",[5]; [16],30
same,"UPDRS Total, Δ",[5]; [16],+3
same,"UPDRS Part 3 Motor Total, collected value, Median (Min, Max)","[5]; Visit 2 Baseline, Full analysis set, n=18","16.0 (3, 39)"
same,"UPDRS Part 3 Motor Total, collected value, Median (Min, Max)",[5]; [17],"17.0 (3, 39)"
same,"UPDRS Total Score, Collected value, Mean (SD)",[5]; [17],37.0 (13.3)
same,"UPDRS Total Score, Collected value, Median (Min, Max)",[5]; [17],"36.0 (17, 66)"
same,"UPDRS Part 3 Motor Total, absolute change from baseline, Mean (SD)",[5]; [18],−3.7 (4.7)
same,"UPDRS Part 3 Motor Total, absolute change from baseline, Median (Min, Max)",[5]; [18],"−4.0 (−12, 5)"
same,"UPDRS Part 3 Motor Total, collected value, Median (Min, Max)",[5]; [18],"14.0 (2, 30)"
same,"UPDRS Total Score, Absolute change from baseline, Mean (SD)",[5]; [18],−6.5 (7.6)
same,"UPDRS Total Score, Absolute change from baseline, Median (Min, Max)",[5]; [18],"−5.0 (−23, 6)"
same,"UPDRS Total Score, Collected value, Median (Min, Max)",[5]; [18],"29.0 (13, 54)"
same,"UPDRS Part 3 Motor Total, absolute change from baseline, Mean (SD)",[5]; [19],−3.7 (4.7)
same,"UPDRS Part 3 Motor Total, absolute change from baseline, Median (Min, Max)",[5]; [19],"−4.0 (−12, 5)"
same,"UPDRS Part 3 Motor Total, collected value, Median (Min, Max)",[5]; [19],"14.0 (2, 30)"
same,"UPDRS Total Score (all Parts), absolute change from baseline, Mean (SD)",[5]; [19],−6.5 (7.6)
same,"UPDRS Total Score (all Parts), absolute change from baseline, Median (Min, Max)",[5]; [19],"−5.0 (−23, 6)"
same,"UPDRS Total Score (all Parts), collected value, Median (Min, Max)",[5]; [19],"29.0 (13, 54)"
same,"UPDRS Part 3 Motor Total, absolute change from baseline, Mean (SD)",[5]; [20],−3.7 (4.6)
same,"UPDRS Part 3 Motor Total, absolute change from baseline, Median (Min, Max)",[5]; [20],"−4.0 (−13, 3)"
same,"UPDRS Part 3 Motor Total, collected value, Median (Min, Max)",[5]; [20],"14.0 (1, 35)"
same,"UPDRS Total Score, Absolute change from baseline, Mean (SD)",[5]; [20],−5.7 (6.0)
same,"UPDRS Total Score, Absolute change from baseline, Median (Min, Max)",[5]; [20],"−5.0 (−15, 4)"
same,"UPDRS Total Score, Collected value, Median (Min, Max)",[5]; [20],"30.0 (15, 63)"
same,"UPDRS Part 3 Motor Total, absolute change from baseline, Mean (SD)",[5]; [21],−3.7 (4.6)
same,"UPDRS Part 3 Motor Total, absolute change from baseline, Median (Min, Max)",[5]; [21],"−4.0 (−13, 3)"
same,"UPDRS Part 3 Motor Total, collected value, Median (Min, Max)",[5]; [21],"14.0 (1, 35)"
same,"UPDRS Total Score (all Parts), absolute change from baseline, Mean (SD)",[5]; [21],−5.7 (6.0)
same,"UPDRS Total Score (all Parts), absolute change from baseline, Median (Min, Max)",[5]; [21],"−5.0 (−15, 4)"
same,"UPDRS Total Score (all Parts), collected value, Median (Min, Max)",[5]; [21],"30.0 (15, 63)"
same,"UPDRS Part 3 Motor Total, absolute change from baseline, Mean (SD)",[5]; [22],−2.7 (5.5)
same,"UPDRS Part 3 Motor Total, absolute change from baseline, Median (Min, Max)",[5]; [22],"−2.0 (−15, 4)"
same,"UPDRS Part 3 Motor Total, collected value, Median (Min, Max)",[5]; [22],"13.0 (2, 32)"
same,"UPDRS Total Score (all Parts), absolute change from baseline, Mean (SD)",[5]; [22],−4.4 (9.0)
same,"UPDRS Total Score (all Parts), absolute change from baseline, Median (Min, Max)",[5]; [22],"−3.0 (−20, 7)"
same,"UPDRS Total Score (all Parts), collected value, Median (Min, Max)",[5]; [22],"31.0 (15, 56)"
same,"UPDRS Part 3 Motor Total, absolute change from baseline, Mean (SD)",[5]; [23],−2.7 (5.5)
same,"UPDRS Part 3 Motor Total, absolute change from baseline, Median (Min, Max)",[5]; [23],"−2.0 (−15, 4)"
same,"UPDRS Part 3 Motor Total, collected value, Median (Min, Max)",[5]; [23],"13.0 (2, 32)"
same,"UPDRS Total Score, Absolute change from baseline, Mean (SD)",[5]; [23],−4.4 (9.0)
same,"UPDRS Total Score, Absolute change from baseline, Median (Min, Max)",[5]; [23],"−3.0 (−20, 7)"
same,"UPDRS Total Score, Collected value, Median (Min, Max)",[5]; [23],"31.0 (15, 56)"
same,"Reduction in UPDRS Part 3 scores, more than placebo",[5]; day 42,3.9 points
same,Amantadine co-treated NLX-112 patients with decreases in UPDRS total score and UPDRS Part 3,[5]; five patients also receiving amantadine,three
same,Effect on the beneficial anti-parkinsonian effects of L-DOPA,[5]; in vivo,"did not worsen, and actually enhanced, the beneficial effects of L-DOPA"
same,Amantadine co-treated NLX-112 patients with numerical reductions in PD symptoms (UPDRS),[5]; patients on NLX-112 and amantadine,4 of the 5
same,"Activity in models of pain, forced swim test and urinary function in a spinal cord injury model",[6],pronounced activity
same,"Blood concentrations that could be associated with side effects, such as dizziness",[7],higher than 15 ng/ml
same,"Befiradol Cmax in female subjects, higher than males by",[8],20%-40%
